From US20240409585A1, “MACROCYCLIC IMMUNOMODULATORS” (priority 2021, published 2024)
Bridge positions count the residues as written; N and C are the ends. Square brackets hold non-standard residues; d marks the D form. Peptide text beside a SMILES is read from it. * marks the point of attachment. ξ: configuration not given here. Phe(3-COOH) = N[C@@H](Cc1cccc(C(=O)O)c1)C(=O)O; Phe(4-COOH) = N[C@@H](Cc1ccc(C(=O)O)cc1)C(=O)O; Phe(4-CH2NH2) = NCc1ccc(C[C@H](N)C(=O)O)cc1; Bip = N[C@@H](Cc1ccc(-c2ccccc2)cc1)C(=O)O; Phe(3-Me) = Cc1cccc(C[C@H](N)C(=O)O)c1; 4Pal = N[C@@H](Cc1ccncc1)C(=O)O; Cha = N[C@@H](CC1CCCCC1)C(=O)O; AllylGly = C=CC[C@H](N)C(=O)O; Hpra = C#CCC[C@H](N)C(=O)O; Carboxymethyl = O=C(O)C*; NMeA = CN[C@@H](C)C(=O)O; Orn = NCCC[C@H](N)C(=O)O; Dab = NCC[C@H](N)C(=O)O; Dap = NC[C@H](N)C(=O)O; ξC = NC(CS)C(=O)O; Acm = CC(=O)NC*

target: T1, PE-labeled human PD-L1-Ig binding to Jurkat cell line over-expressing human PD-1 (Jurkat-PD-1) (Homo sapiens, UniProt Q15116); assay: Jurkat-PD-1 Cell Binding High-Content Screening Assay (CBA): Method 1; conditions: Jurkat-hPD-1 cells, PE-labeled PD-L1-Ig 20 nM final; read-out: Jurkat HPDL1 PD1 IC50 (uM) (Method 1)
T1 construct: expressed in transfected cells; host or cells: Jurkat
T1 sequence (Q15116 25-288): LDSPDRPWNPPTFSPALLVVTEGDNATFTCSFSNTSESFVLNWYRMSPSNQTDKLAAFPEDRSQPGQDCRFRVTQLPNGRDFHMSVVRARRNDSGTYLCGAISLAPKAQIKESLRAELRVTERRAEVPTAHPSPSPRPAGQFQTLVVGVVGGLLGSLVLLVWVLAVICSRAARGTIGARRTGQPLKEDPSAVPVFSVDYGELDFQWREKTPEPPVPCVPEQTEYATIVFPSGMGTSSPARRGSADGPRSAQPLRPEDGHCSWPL

Row | IC50 | SMILES
1 | 0.01 µM | CC(C)C[C@@H]1NC(=O)[C@H](Cc2c[nH]c3ccccc23)NC(=O)[C@H](CC(=O)O)NC(=O)[C@H](Cc2ccc(C(=O)O)cc2)NC(=O)[C@H](Cc2cccc(C(=O)O)c2)NC(=O)CSC[C@@H](C(=O)NCC(N)=O)NC(=O)[C@H](CO)NC(=O)[C@H](C(C)C)NC(=O)[C@H](CC2CCCCC2)NC(=O)[C@H](CCN)NC(=O)[C@@H](CC(C)C)NC(=O)[C@H](C)N(C)C(=O)[C@H](C(C)C)NC(=O)[C@H](Cc2ccc(-c3ccccc3)cc2)NC1=O [Compound 1879] ({CH2CO}-[Phe(3-COOH)][Phe(4-COOH)]DWL[Bip]V[NMeA][dL][Dab][Cha]VSCG-NH2; thioether N-14)
2 | 0.1 µM | C=CC[C@@H]1NC(=O)[C@H](CC(C)C)NC(=O)[C@H](CC(N)=O)NC(=O)[C@@H](CC(C)C)NC(=O)[C@H](C)N(C)C(=O)[C@H](CC=C)NC(=O)[C@H](Cc2ccc(-c3ccccc3)cc2)NC(=O)[C@H](CC(C)C)NC(=O)[C@H](Cc2cccc(C)c2)NC(=O)[C@H](CC(=O)O)NC(=O)[C@H](Cc2ccncc2)NC(=O)[C@H](Cc2ccc(OCC(=O)O)cc2)NC(=O)CSCC(C(=O)NCC(N)=O)NC(=O)[C@H](CO)NC1=O (stereo partly drawn) [Compound 1881] ({CH2CO}-Y(Carboxymethyl)[4Pal]D[Phe(3-Me)]L[Bip][AllylGly][NMeA][dL]NL[AllylGly]S[ξC]G-NH2; thioether N-14)
3 | 0.11 µM | CC(=O)NCSC[C@@H]1NC(=O)[C@H](Cc2cccc(C)c2)NC(=O)[C@H](CC(=O)O)NC(=O)[C@H](Cc2ccncc2)NC(=O)[C@H](Cc2ccc(OCC(=O)O)cc2)NC(=O)CSCC(C(=O)NCC(N)=O)NC(=O)[C@H](CSCNC(C)=O)NC(=O)[C@H](C(C)C)NC(=O)[C@H](CC(C)C)NC(=O)[C@H](CC(N)=O)NC(=O)[C@@H](CC(C)C)NC(=O)[C@H](C)N(C)C(=O)[C@H](C(C)C)NC(=O)[C@H](Cc2ccc(-c3ccccc3)cc2)NC1=O (stereo partly drawn) [Compound 1885] ({CH2CO}-Y(Carboxymethyl)[4Pal]D[Phe(3-Me)]C(Acm)[Bip]V[NMeA][dL]NLVC(Acm)[ξC]G-NH2; thioether N-14)
4 | 0.14 µM | CC(=O)NCSC[C@@H]1NC(=O)[C@H](CC(C)C)NC(=O)[C@H](CC(N)=O)NC(=O)[C@@H](CC(C)C)NC(=O)[C@H](C)N(C)C(=O)[C@H](CSCNC(C)=O)NC(=O)[C@H](Cc2ccc(-c3ccccc3)cc2)NC(=O)[C@H](CC(C)C)NC(=O)[C@H](Cc2cccc(C)c2)NC(=O)[C@H](CC(=O)O)NC(=O)[C@H](Cc2ccncc2)NC(=O)[C@H](Cc2ccc(OCC(=O)O)cc2)NC(=O)CSCC(C(=O)NCC(N)=O)NC(=O)[C@H](CO)NC1=O (stereo partly drawn) [Compound 1886] ({CH2CO}-Y(Carboxymethyl)[4Pal]D[Phe(3-Me)]L[Bip]C(Acm)[NMeA][dL]NLC(Acm)S[ξC]G-NH2; thioether N-14)
5 | 0.25 µM | CC(=O)NCSC[C@@H]1NC(=O)[C@H](CC(C)C)NC(=O)[C@H](CC(N)=O)NC(=O)[C@@H](CC(C)C)NC(=O)[C@H](C)N(C)C(=O)[C@H](C(C)C)NC(=O)[C@H](Cc2ccc(-c3ccccc3)cc2)NC(=O)[C@H](CSCNC(C)=O)NC(=O)[C@H](Cc2cccc(C)c2)NC(=O)[C@H](CC(=O)O)NC(=O)[C@H](Cc2ccncc2)NC(=O)[C@H](Cc2ccc(OCC(=O)O)cc2)NC(=O)CSCC(C(=O)NCC(N)=O)NC(=O)[C@H](CO)NC1=O (stereo partly drawn) [Compound 1887] ({CH2CO}-Y(Carboxymethyl)[4Pal]D[Phe(3-Me)]C(Acm)[Bip]V[NMeA][dL]NLC(Acm)S[ξC]G-NH2; thioether N-14)
6 | 0.03 µM | CC(=O)NCSC[C@H](NC(=O)C1CSCC(=O)N[C@@H](Cc2ccc(OCC(=O)O)cc2)C(=O)N[C@@H](CSCNC(C)=O)C(=O)N[C@@H](CC(=O)O)C(=O)N[C@@H](Cc2cccc(C)c2)C(=O)N[C@@H](CC(C)C)C(=O)N[C@@H](Cc2ccc(-c3ccccc3)cc2)C(=O)N[C@@H](C(C)C)C(=O)N(C)[C@@H](C)C(=O)N[C@H](CC(C)C)C(=O)N[C@@H](CC(N)=O)C(=O)N[C@@H](CC(C)C)C(=O)N[C@@H](C(C)C)C(=O)N[C@@H](CO)C(=O)N1)C(N)=O (stereo partly drawn) [Compound 1889] ({CH2CO}-Y(Carboxymethyl)C(Acm)D[Phe(3-Me)]L[Bip]V[NMeA][dL]NLVS[ξC]C(Acm)-NH2; thioether N-14)

Further lines, the molecule ahead of its results:

Row | SMILES | IC50
7 | Cc1cccc(C[C@@H]2NC(=O)[C@H](CC(=O)O)NC(=O)[C@H](Cc3ccc(C(=O)O)cc3)NC(=O)[C@H](Cc3ccc(OCC(=O)O)cc3)NC(=O)CSC[C@@H](C(N)=O)NC(=O)[C@H](CO)NC(=O)[C@H](C(C)C)NC(=O)[C@H](CC(C)C)NC(=O)[C@H](Cc3c[nH]cn3)NC(=O)[C@@H](CC(C)C)NC(=O)[C@H](C)N(C)C(=O)[C@H](C(C)C)NC(=O)[C@H](Cc3ccc(-c4ccccc4)cc3)NC(=O)[C@H](Cc3ccc(CN)cc3)NC2=O)c1 [Compound 1876] ({CH2CO}-Y(Carboxymethyl)[Phe(4-COOH)]D[Phe(3-Me)][Phe(4-CH2NH2)][Bip]V[NMeA][dL]HLVSC-NH2; thioether N-14) | 0.34 µM
8 | CC(C)C[C@@H]1NC(=O)[C@H](Cc2c[nH]c3ccccc23)NC(=O)[C@H](CC(=O)O)NC(=O)[C@H](Cc2cccc(C(=O)O)c2)NC(=O)[C@H](CN)NC(=O)CSC[C@@H](C(=O)NCC(N)=O)NC(=O)[C@H](CO)NC(=O)[C@H](C(C)C)NC(=O)[C@H](CC2CCCCC2)NC(=O)[C@H](CCN)NC(=O)[C@@H](CC(C)C)NC(=O)[C@H](C)N(C)C(=O)[C@H](C(C)C)NC(=O)[C@H](Cc2ccc(-c3ccccc3)cc2)NC1=O [Compound 1877] ({CH2CO}-[Dap][Phe(3-COOH)]DWL[Bip]V[NMeA][dL][Dab][Cha]VSCG-NH2; thioether N-14) | 0.01 µM
9 | C#CCC[C@H](NC(=O)[C@H](CCCN)NC(=O)[C@@H]1CSCC(=O)N[C@@H](Cc2ccncc2)C(=O)N[C@@H](Cc2ccc(OCC(=O)O)cc2)C(=O)N[C@@H](CC(=O)O)C(=O)N[C@@H](Cc2cccc(C)c2)C(=O)N[C@@H](C(C)C)C(=O)N[C@@H](Cc2ccc(-c3ccccc3)cc2)C(=O)N[C@@H](C(C)C)C(=O)N(C)[C@@H](C)C(=O)N[C@H](CC(C)C)C(=O)N[C@@H](CCN)C(=O)N[C@@H](CC2CCCCC2)C(=O)N[C@@H](C(C)C)C(=O)N[C@@H]([C@@H](C)O)C(=O)N1)C(N)=O [Compound 1878] ({CH2CO}-[4Pal]Y(Carboxymethyl)D[Phe(3-Me)]V[Bip]V[NMeA][dL][Dab][Cha]VTC[Orn][Hpra]-NH2; thioether N-14) | 0.01 µM
10 | C=CC[C@@H]1NC(=O)[C@H](Cc2cccc(C)c2)NC(=O)[C@H](CC(=O)O)NC(=O)[C@H](Cc2ccncc2)NC(=O)[C@H](Cc2ccc(OCC(=O)O)cc2)NC(=O)CSCC(C(=O)NCC(N)=O)NC(=O)[C@H](CC=C)NC(=O)[C@H](C(C)C)NC(=O)[C@H](CC(C)C)NC(=O)[C@H](CC(N)=O)NC(=O)[C@@H](CC(C)C)NC(=O)[C@H](C)N(C)C(=O)[C@H](C(C)C)NC(=O)[C@H](Cc2ccc(-c3ccccc3)cc2)NC1=O (stereo partly drawn) [Compound 1880] ({CH2CO}-Y(Carboxymethyl)[4Pal]D[Phe(3-Me)][AllylGly][Bip]V[NMeA][dL]NLV[AllylGly][ξC]G-NH2; thioether N-14) | 0.05 µM
11 | C=CC[C@@H]1NC(=O)[C@H](CC(C)C)NC(=O)[C@H](CC(N)=O)NC(=O)[C@@H](CC(C)C)NC(=O)[C@H](C)N(C)C(=O)[C@H](C(C)C)NC(=O)[C@H](Cc2ccc(-c3ccccc3)cc2)NC(=O)[C@H](CC=C)NC(=O)[C@H](Cc2cccc(C)c2)NC(=O)[C@H](CC(=O)O)NC(=O)[C@H](Cc2ccncc2)NC(=O)[C@H](Cc2ccc(OCC(=O)O)cc2)NC(=O)CSCC(C(=O)NCC(N)=O)NC(=O)[C@H](CO)NC1=O (stereo partly drawn) [Compound 1882] ({CH2CO}-Y(Carboxymethyl)[4Pal]D[Phe(3-Me)][AllylGly][Bip]V[NMeA][dL]NL[AllylGly]S[ξC]G-NH2; thioether N-14) | 0.03 µM
12 | C=CC[C@@H]1NC(=O)[C@H](Cc2cccc(C)c2)NC(=O)[C@H](CC(=O)O)NC(=O)[C@H](Cc2ccncc2)NC(=O)[C@H](Cc2ccc(OCC(=O)O)cc2)NC(=O)CSCC(C(=O)NCC(N)=O)NC(=O)[C@H](CO)NC(=O)[C@H](C(C)C)NC(=O)[C@H](CC(C)C)NC(=O)[C@H](CC(N)=O)NC(=O)[C@@H](CC(C)C)NC(=O)[C@H](C)N(C)C(=O)[C@H](CC=C)NC(=O)[C@H](Cc2ccc(-c3ccccc3)cc2)NC1=O (stereo partly drawn) [Compound 1883] ({CH2CO}-Y(Carboxymethyl)[4Pal]D[Phe(3-Me)][AllylGly][Bip][AllylGly][NMeA][dL]NLVS[ξC]G-NH2; thioether N-14) | 0.06 µM
13 | C=CC[C@H](NC(=O)C1CSCC(=O)N[C@@H](Cc2ccc(OCC(=O)O)cc2)C(=O)N[C@@H](CC=C)C(=O)N[C@@H](CC(=O)O)C(=O)N[C@@H](Cc2cccc(C)c2)C(=O)N[C@@H](CC(C)C)C(=O)N[C@@H](Cc2ccc(-c3ccccc3)cc2)C(=O)N[C@@H](C(C)C)C(=O)N(C)[C@@H](C)C(=O)N[C@H](CC(C)C)C(=O)N[C@@H](CC(N)=O)C(=O)N[C@@H](CC(C)C)C(=O)N[C@@H](C(C)C)C(=O)N[C@@H](CO)C(=O)N1)C(N)=O (stereo partly drawn) [Compound 1884] ({CH2CO}-Y(Carboxymethyl)[AllylGly]D[Phe(3-Me)]L[Bip]V[NMeA][dL]NLVS[ξC][AllylGly]-NH2; thioether N-14) | 0.03 µM
14 | CC(=O)NCSC[C@@H]1NC(=O)[C@H](Cc2cccc(C)c2)NC(=O)[C@H](CC(=O)O)NC(=O)[C@H](Cc2ccncc2)NC(=O)[C@H](Cc2ccc(OCC(=O)O)cc2)NC(=O)CSCC(C(=O)NCC(N)=O)NC(=O)[C@H](CO)NC(=O)[C@H](C(C)C)NC(=O)[C@H](CC(C)C)NC(=O)[C@H](CC(N)=O)NC(=O)[C@@H](CC(C)C)NC(=O)[C@H](C)N(C)C(=O)[C@H](CSCNC(C)=O)NC(=O)[C@H](Cc2ccc(-c3ccccc3)cc2)NC1=O (stereo partly drawn) [Compound 1888] ({CH2CO}-Y(Carboxymethyl)[4Pal]D[Phe(3-Me)]C(Acm)[Bip]C(Acm)[NMeA][dL]NLVS[ξC]G-NH2; thioether N-14) | 0.2 µM
